Results from patent publication US5721208A, “Glycopeptides a process for their preparation and their use” (Hoechst Aktiengesellschaft, priority 1991, dated 1998).

Legend:
Strept. faecium D = test: Minimum bacteriostatic inhibitory concentration, Agar dilution method; format: cell-based
Propioni acnes 6916 = test: as above; format: cell-based
[1] = test system: Peptostrept. anaerob. 932; test: as above; format: cell-based
[2] = test system: Clostridium perfringens 194; conditions: Agar dilution method
Staph. aureus 285 = test: Minimum bacteriostatic inhibitory concentration, Agar dilution method; format: cell-based
Bact. vulgatus 1446 = test: as above; format: cell-based
Staph. aureus SG 511 = test: as above; format: cell-based
Propioni acnes 6922 = test: as above; format: cell-based
Strept. pyogenes 77 A = test: as above; format: cell-based
Staph. aureus 503 = test: as above; format: cell-based
Strept. pyogenes 308 A = test: as above; format: cell-based
Escherichia coli DC 2 = test: as above; format: cell-based
[3] = test system: Clostridium tetani ATCC 1940650; conditions: Agar dilution method
Bact. fragilis 960 = test: Minimum bacteriostatic inhibitory concentration, Agar dilution method; format: cell-based
Bact. fragilis 312 = test: as above; format: cell-based
Bact. fragilis 1313 = test: as above; format: cell-based

## CNC(CC(C)C)C(=O)NC1C(=O)NC(CC(N)=O)C(=O)NC2C(=O)NC3C(=O)NC(C(=O)NC(C(=O)O)c4cc(O)cc(O)c4-c4cc3ccc4O)C(OC3CC4(C)NC(=O)NC4(O)C(C)O3)c3ccc(c(Cl)c3)Oc3cc2cc(c3OC2OC(CO)C(O)C(O)C2O)Oc2ccc(cc2Cl)C1O (stereo not shown) [Ureidobalhimycin, ureidobalhimycin]
Strept. faecium D
  Minimum bacteriostatic inhibitory concentration: 1.5 micrograms per milliliter
Propioni acnes 6916
  Minimum bacteriostatic inhibitory concentration: 0.8 micrograms per milliliter
[1]
  Minimum bacteriostatic inhibitory concentration: 6.2 micrograms per milliliter
[2]
  Minimum bacteriostatic inhibitory concentration: 0.4 micrograms per milliliter
Staph. aureus 285
  Minimum bacteriostatic inhibitory concentration: 1.5 micrograms per milliliter
Bact. vulgatus 1446
  Minimum bacteriostatic inhibitory concentration: 50 micrograms per milliliter
Staph. aureus SG 511
  Minimum bacteriostatic inhibitory concentration: 0.8 micrograms per milliliter
Propioni acnes 6922
  Minimum bacteriostatic inhibitory concentration: 1.5 micrograms per milliliter
Strept. pyogenes 77 A
  Minimum bacteriostatic inhibitory concentration: 0.8 micrograms per milliliter
Staph. aureus 503
  Minimum bacteriostatic inhibitory concentration: 1.5 micrograms per milliliter
Strept. pyogenes 308 A
  Minimum bacteriostatic inhibitory concentration: 0.8 micrograms per milliliter
Escherichia coli DC 2
  Minimum bacteriostatic inhibitory concentration: > 100 micrograms per milliliter
[3]
  Minimum bacteriostatic inhibitory concentration: 12.5 micrograms per milliliter
Bact. fragilis 960
  Minimum bacteriostatic inhibitory concentration: 25 micrograms per milliliter
Bact. fragilis 312
  Minimum bacteriostatic inhibitory concentration: 25 micrograms per milliliter
Bact. fragilis 1313
  Minimum bacteriostatic inhibitory concentration: 25 micrograms per milliliter

## CNC(CC(C)C)C(=O)NC1C(=O)NC(CC(N)=O)C(=O)NC2C(=O)NC3C(=O)NC(C(=O)NC(C(=O)O)c4cc(O)cc(O)c4-c4cc3ccc4O)C(OC3CC(C)(N)C(=O)C(C)O3)c3ccc(c(Cl)c3)Oc3cc2cc(c3O)Oc2ccc(cc2Cl)C1O (stereo not shown) [Desglucobalhimycin, desglucobalhimycin]
Strept. faecium D
  Minimum bacteriostatic inhibitory concentration: 0.2 micrograms per milliliter
Propioni acnes 6916
  Minimum bacteriostatic inhibitory concentration: 0.2 micrograms per milliliter
[1]
  Minimum bacteriostatic inhibitory concentration: 0.4 micrograms per milliliter
[2]
  Minimum bacteriostatic inhibitory concentration: 0.1 micrograms per milliliter
Staph. aureus 285
  Minimum bacteriostatic inhibitory concentration: 0.2 micrograms per milliliter
Bact. vulgatus 1446
  Minimum bacteriostatic inhibitory concentration: > 100 micrograms per milliliter
Staph. aureus SG 511
  Minimum bacteriostatic inhibitory concentration: 0.2 micrograms per milliliter
Propioni acnes 6922
  Minimum bacteriostatic inhibitory concentration: 0.2 micrograms per milliliter
Strept. pyogenes 77 A
  Minimum bacteriostatic inhibitory concentration: 0.1 micrograms per milliliter
Staph. aureus 503
  Minimum bacteriostatic inhibitory concentration: 0.1 micrograms per milliliter
Strept. pyogenes 308 A
  Minimum bacteriostatic inhibitory concentration: 0.1 micrograms per milliliter
Escherichia coli DC 2
  Minimum bacteriostatic inhibitory concentration: > 100 micrograms per milliliter
[3]
  Minimum bacteriostatic inhibitory concentration: 0.4 micrograms per milliliter
Bact. fragilis 960
  Minimum bacteriostatic inhibitory concentration: 25 micrograms per milliliter
Bact. fragilis 312
  Minimum bacteriostatic inhibitory concentration: 25 micrograms per milliliter
Bact. fragilis 1313
  Minimum bacteriostatic inhibitory concentration: 25 micrograms per milliliter

## CC1OC(OC2c3ccc(c(Cl)c3)Oc3cc4cc(c3OC3OC(CO)C(O)C(O)C3O)Oc3ccc(cc3Cl)C(O)C(N)C(=O)NC(CC(N)=O)C(=O)NC4C(=O)NC3C(=O)NC2C(=O)NC(C(=O)O)c2cc(O)cc(O)c2-c2cc3ccc2O)CC(C)(N)C1=O (stereo not shown) [Desmethylleucylbalhimycin, desmethylleucylbalhimycin]
Strept. faecium D
  Minimum bacteriostatic inhibitory concentration: 6 micrograms per milliliter
Propioni acnes 6916
  Minimum bacteriostatic inhibitory concentration: 6 micrograms per milliliter
[1]
  Minimum bacteriostatic inhibitory concentration: 50 micrograms per milliliter
[2]
  Minimum bacteriostatic inhibitory concentration: 6 micrograms per milliliter
Staph. aureus 285
  Minimum bacteriostatic inhibitory concentration: 6 micrograms per milliliter
Bact. vulgatus 1446
  Minimum bacteriostatic inhibitory concentration: 100 micrograms per milliliter
Staph. aureus SG 511
  Minimum bacteriostatic inhibitory concentration: 3 micrograms per milliliter
Propioni acnes 6922
  Minimum bacteriostatic inhibitory concentration: 6 micrograms per milliliter
Strept. pyogenes 77 A
  Minimum bacteriostatic inhibitory concentration: 3 micrograms per milliliter
Staph. aureus 503
  Minimum bacteriostatic inhibitory concentration: 6 micrograms per milliliter
Strept. pyogenes 308 A
  Minimum bacteriostatic inhibitory concentration: 12.5 micrograms per milliliter
Escherichia coli DC 2
  Minimum bacteriostatic inhibitory concentration: > 100 micrograms per milliliter
[3]
  Minimum bacteriostatic inhibitory concentration: 50 micrograms per milliliter
Bact. fragilis 960
  Minimum bacteriostatic inhibitory concentration: 50 micrograms per milliliter
Bact. fragilis 312
  Minimum bacteriostatic inhibitory concentration: 50 micrograms per milliliter
Bact. fragilis 1313
  Minimum bacteriostatic inhibitory concentration: 100 micrograms per milliliter

## CC(C)CC(N)C(=O)NC1C(=O)NC(CC(N)=O)C(=O)NC2C(=O)NC3C(=O)NC(C(=O)NC(C(=O)O)c4cc(O)cc(O)c4-c4cc3ccc4O)C(OC3CC(C)(N)C(=O)C(C)O3)c3ccc(c(Cl)c3)Oc3cc2cc(c3O)Oc2ccc(cc2Cl)C1O (stereo not shown) [Desmethyl-desglucobalhimycin, desmethyl-desglucobalhimycin]
Strept. faecium D
  Minimum bacteriostatic inhibitory concentration: 0.2 micrograms per milliliter
Propioni acnes 6916
  Minimum bacteriostatic inhibitory concentration: 0.2 micrograms per milliliter
[1]
  Minimum bacteriostatic inhibitory concentration: 0.2 micrograms per milliliter
[2]
  Minimum bacteriostatic inhibitory concentration: 0.1 micrograms per milliliter
Staph. aureus 285
  Minimum bacteriostatic inhibitory concentration: 0.2 micrograms per milliliter
Bact. vulgatus 1446
  Minimum bacteriostatic inhibitory concentration: > 100 micrograms per milliliter
Staph. aureus SG 511
  Minimum bacteriostatic inhibitory concentration: 0.2 micrograms per milliliter
Propioni acnes 6922
  Minimum bacteriostatic inhibitory concentration: 0.1 micrograms per milliliter
Strept. pyogenes 77 A
  Minimum bacteriostatic inhibitory concentration: 0.1 micrograms per milliliter
Staph. aureus 503
  Minimum bacteriostatic inhibitory concentration: 0.1 micrograms per milliliter
Strept. pyogenes 308 A
  Minimum bacteriostatic inhibitory concentration: 0.1 micrograms per milliliter
Escherichia coli DC 2
  Minimum bacteriostatic inhibitory concentration: > 100 micrograms per milliliter
Bact. fragilis 960
  Minimum bacteriostatic inhibitory concentration: 25 micrograms per milliliter
Bact. fragilis 312
  Minimum bacteriostatic inhibitory concentration: 50 micrograms per milliliter
Bact. fragilis 1313
  Minimum bacteriostatic inhibitory concentration: 50 micrograms per milliliter

## balhimycin R
Strept. faecium D
  Minimum bacteriostatic inhibitory concentration: 0.4 micrograms per milliliter
Propioni acnes 6916
  Minimum bacteriostatic inhibitory concentration: 6.2 micrograms per milliliter
[1]
  Minimum bacteriostatic inhibitory concentration: 100 micrograms per milliliter
Staph. aureus 285
  Minimum bacteriostatic inhibitory concentration: 0.8 micrograms per milliliter
Bact. vulgatus 1446
  Minimum bacteriostatic inhibitory concentration: > 100 micrograms per milliliter
Staph. aureus SG 511
  Minimum bacteriostatic inhibitory concentration: 0.2 micrograms per milliliter
Propioni acnes 6922
  Minimum bacteriostatic inhibitory concentration: 3.1 micrograms per milliliter
Strept. pyogenes 77 A
  Minimum bacteriostatic inhibitory concentration: 0.2 micrograms per milliliter
Staph. aureus 503
  Minimum bacteriostatic inhibitory concentration: 0.2 micrograms per milliliter
Strept. pyogenes 308 A
  Minimum bacteriostatic inhibitory concentration: 0.2 micrograms per milliliter
Escherichia coli DC 2
  Minimum bacteriostatic inhibitory concentration: 50 micrograms per milliliter
[3]
  Minimum bacteriostatic inhibitory concentration: 100 micrograms per milliliter
Bact. fragilis 960
  Minimum bacteriostatic inhibitory concentration: > 100 micrograms per milliliter
Bact. fragilis 312
  Minimum bacteriostatic inhibitory concentration: > 100 micrograms per milliliter
Bact. fragilis 1313
  Minimum bacteriostatic inhibitory concentration: > 100 micrograms per milliliter

## balhimycin V
Strept. faecium D
  Minimum bacteriostatic inhibitory concentration: 0.2 micrograms per milliliter
Staph. aureus 285
  Minimum bacteriostatic inhibitory concentration: 0.4 micrograms per milliliter
Staph. aureus SG 511
  Minimum bacteriostatic inhibitory concentration: 0.4 micrograms per milliliter
Strept. pyogenes 77 A
  Minimum bacteriostatic inhibitory concentration: 0.05 micrograms per milliliter
Staph. aureus 503
  Minimum bacteriostatic inhibitory concentration: 0.1 micrograms per milliliter
Strept. pyogenes 308 A
  Minimum bacteriostatic inhibitory concentration: 0.05 micrograms per milliliter
Escherichia coli DC 2
  Minimum bacteriostatic inhibitory concentration: > 100 micrograms per milliliter
